The series can be described thus: Effect of autoclave sterilization on final drug concentration in silicone (FIG. 11). In kind it is physicochemical. The conditions noted are these: starting concentration about 0.0738 wt %, autoclave about 30 minutes. How it is done: FIG. 11 illustrates the effect of sterilization on the final drug concentration, showing the degradation rate versus autoclave time, for example, with a starting concentration of about 0.0738 wt % rifampin in the silicone and running the autoclave about 30 minutes will result in a final concentration of about 0.054 wt % rifampin in the silicone sleeve.
The term “weight percent” or “wt %” means the ratio of the drug weight to the weight of the biocompatible matrix, e.g., the silicone after sterilization, for example, an initial concentration of rifampin of about 0.0738 wt % with about a 30 minute autoclave time will result in a final wt % of about 0.054 in the sterilized product.

With `CO[C@H]1/C=C/O[C@@]2(C)Oc3c(C)c(O)c4c(O)c(c(/C=N/N5CCN(C)CC5)c(O)c4c3C2=O)NC(=O)/C(C)=C\C=C\[C@H](C)[C@H](O)[C@@H](C)[C@@H](O)[C@@H](C)[C@H](OC(C)=O)[C@@H]1C` [rifampin], the “final concentration of rifampin in the silicone after autoclave sterilization” value is “about 0.054 wt %”.
